Reference: patent US8999964B2, “TGR5 modulators and methods of use thereof” (Intercept Pharmaceuticals, Inc., priority 2008, dated 2015)
Structures can show the parent of a compound that is named as a salt.

What was measured:
PPARδ = target: T1, PPARδ (Homo sapiens, UniProt Q03181); test: PPARδ activation, NR selectivity assay; details: Table 6
T1 sequence (Q03181 211-439 limits assumed): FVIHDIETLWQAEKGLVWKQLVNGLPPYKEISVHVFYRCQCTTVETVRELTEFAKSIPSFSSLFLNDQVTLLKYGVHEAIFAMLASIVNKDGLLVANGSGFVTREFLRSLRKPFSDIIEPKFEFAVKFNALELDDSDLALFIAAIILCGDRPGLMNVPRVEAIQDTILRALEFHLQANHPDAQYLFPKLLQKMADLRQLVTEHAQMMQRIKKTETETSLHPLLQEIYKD

hTGR5 [1] = target: T2, hTGR5 (Homo sapiens, UniProt Q8TDU6); test: FRET-cAMP on TGR5 overexpressing Hek293 cells; assay type: cell-based; parameters: Human intestinal cell lines (NCI-H716) were plated in 96-well plates; endogenous in cells
T2 sequence (Q8TDU6 1-330): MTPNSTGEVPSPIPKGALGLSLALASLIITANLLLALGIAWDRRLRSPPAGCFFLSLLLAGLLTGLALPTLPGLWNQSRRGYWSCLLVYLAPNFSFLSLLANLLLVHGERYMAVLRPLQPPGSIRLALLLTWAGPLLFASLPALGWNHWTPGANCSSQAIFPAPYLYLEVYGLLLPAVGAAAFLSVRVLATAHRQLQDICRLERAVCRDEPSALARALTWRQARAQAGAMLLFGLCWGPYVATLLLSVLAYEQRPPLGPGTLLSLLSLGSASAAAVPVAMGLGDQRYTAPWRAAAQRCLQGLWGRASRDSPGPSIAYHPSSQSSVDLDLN

in vitro = details: human
[2] = Bile fistula rat, duodenal (id) infusion: bile flow, biliary secretion, metabolism; details: for Intestinal absorption: biliary secretion id versus iv; for Conc. in bile: rat bile; for Secretion (biliary): rat
LXRα = target: T3, LXRα (Homo sapiens, UniProt Q13133); test: LXR coactivator recruitment (Alphascreen); assay type: biochemical; details: Table 6
T3 sequence (Q13133 1-447): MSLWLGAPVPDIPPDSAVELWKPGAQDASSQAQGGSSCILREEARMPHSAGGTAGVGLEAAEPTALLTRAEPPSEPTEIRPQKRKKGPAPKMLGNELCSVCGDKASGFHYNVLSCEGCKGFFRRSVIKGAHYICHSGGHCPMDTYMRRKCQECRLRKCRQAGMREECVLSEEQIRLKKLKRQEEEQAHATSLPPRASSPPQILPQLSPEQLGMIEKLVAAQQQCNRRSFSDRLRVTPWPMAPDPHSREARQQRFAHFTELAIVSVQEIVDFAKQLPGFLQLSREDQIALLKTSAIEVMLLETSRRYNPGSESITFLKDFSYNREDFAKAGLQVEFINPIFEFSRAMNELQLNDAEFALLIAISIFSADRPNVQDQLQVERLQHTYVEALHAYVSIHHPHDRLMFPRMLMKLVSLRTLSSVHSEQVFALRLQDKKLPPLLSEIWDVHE

VDR = target: T4, VDR (Homo sapiens, UniProt P11473); test: VDR activation, NR selectivity assay; assay type: biochemical; details: Table 6
T4 construct: purchased Invitrogen
T4 sequence (P11473 127-423 limits assumed): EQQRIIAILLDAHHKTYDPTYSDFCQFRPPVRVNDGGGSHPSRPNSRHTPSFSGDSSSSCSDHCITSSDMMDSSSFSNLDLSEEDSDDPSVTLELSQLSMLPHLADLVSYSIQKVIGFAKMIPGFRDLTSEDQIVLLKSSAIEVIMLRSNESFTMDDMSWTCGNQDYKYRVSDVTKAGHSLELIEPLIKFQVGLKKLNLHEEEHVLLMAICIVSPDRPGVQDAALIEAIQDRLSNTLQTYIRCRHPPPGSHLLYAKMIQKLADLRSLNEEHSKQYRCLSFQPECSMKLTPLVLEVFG

hTGR5 [3] = target: T2, hTGR5; test: cell-based; parameters: Human intestinal cell lines (NCI-H716) were plated in 96-well plates; endogenous in cells; details: Table 1; CRE-Luc reporter, HEK293T; read-out: Transactivation Assay hTGR5 EC50
Method: HEPG2 and HEK293T cells were cultured in E-MEM and DMEM respectively, either supplemented with 1% penicillin/streptomycin, 1% L-glutamine and 10% fetal bovine serum. […] Cells were grown at 37° C. in 5% CO2. All the transfections were made using 5:2 Fugene HD Trasfection reagent (μl) to DNA (μg) respectively (Roche). […] Transient transfections were performed using 100 ng of reporter vector pGL4.29[luc2P/CRE/Hygro] […] The pGEM vector was added to normalize the amounts of DNA transfected in each assay (2 μg). […] The cells were then lysed by adding 75 μl of Dual-Glo Luciferase Reagent (Promega) to 75 μl of medium containing cells/well. Renilla luciferase activity was measured by adding volume:volume of Dual-Glo Stop & Glo reagent and original culture medium. Luciferase activities were expressed as ratio between luciferase unit and renilla luciferase unit. Each data point is the average of triplicate assays. Each experiment was repeated at least three times.
After subtracting the average value of the basal (vehicle-treated) condition, values were applied to EC50 and/or efficacy determinations. Calculation of average EC50 and comparison of the EC50 between different compounds were done after transformation to logarithms.

[4] = Bile fistula rat, femoral (iv) infusion: bile flow, biliary secretion, metabolism; details: for Conc. in bile: rat bile; for Secretion (biliary): rat
[5] = Critical micellar concentration by surface tension measurements; assay type: physicochemical
Method: The critical micellar concentration (CMC) was determined by surface tension (ST) measurements using a maximum bubble-pressure method which give surface tension values slightly affected by potential impurities […] static methods. […] The surface tension values were plotted against the logarithm of the bile salt concentration; the regression lines corresponding to the two parts of the curve (monomeric and micellar phases) were calculated using the method of least squares, and the intersection of the lines was taken as the CMC value. From the ST vs concentration curves the value of the surface tension at the CMC (equilibrium between monomers and multimers species) was also calculated giving information about the detergency power which is related to the size of the micelles with associate surface tension lowering capacity. The CMC was evaluated by surface tension measurements in non equilibrium conditions i.e. in conditions that impurities slightly affect the surface tension results (FIG. 6). […] The presence of a hydroxyl group in the C-16 beta position reduces the hydrophobic area responsible for back to back interaction, which is to form micelles and therefore, the micelles are small and poorly detergent. This property confers to the molecule a low toxicity when accumulated in a given biological fluid or organ.

[6] = bile fistula rat, mass spectrometry
[7] = duodenal infusion 1 μmol/kg/min 1 h, 90 min
[8] = femoral infusion 1 μmol/kg/min 1 h, 75 min

## CC[C@H]1[C@@H](O)[C@@H]2[C@H](CC[C@]3(C)[C@@H]([C@H](C)CCC(=O)O)[C@@H](O)C[C@@H]23)[C@@]2(C)CC[C@@H](O)C[C@@H]12 [Compound 10, 3α,7α,16β-trihydroxy-6α-ethyl-5β-cholan-24-oic acid sodium salt]
PPARδ
  PPARδ Activation EC50: No activity
hTGR5 [1]
  EC50: 0.2 µM
In vitro
  EC50 at 4 h: > 1000 µM
[2]; [6]
  Metabolism, species in bile after id administration: recovered as such and mainly metabolised to form the taurine conjugates
[2]; bile fistula rat, listed as compound 10, sodium salt
  Intestinal absorption: poor intestinal absorption
[2]; bile fistula rat, sodium salt
  Intestinal absorption: efficient
[2]; [7]
  Conc. in bile: 10 µM
  Secretion (biliary): 0.0004 µmol/kg/min
[2]; duodenal infusion 1 μmol/kg/min, 1 hour, bile fistula rat
  Choleretic effect (bile flow): not choleretic
[2]; duodenal infusion, 120 min
  Conc. in bile: 70 µM
  Secretion (biliary): 0.003 µmol/kg/min
[2]; duodenal infusion, 150 min
  Conc. in bile: 390 µM
  Secretion (biliary): 0.019 µmol/kg/min
[2]; duodenal infusion, 180 min
  Conc. in bile: 140 µM
  Secretion (biliary): 0.003 µmol/kg/min
[2]; duodenal infusion, 210 min
  Conc. in bile: 90 µM
  Secretion (biliary): 0.004 µmol/kg/min
[2]; duodenal infusion, 240 min
  Conc. in bile: 30 µM
  Secretion (biliary): 0.001 µmol/kg/min
[2]; duodenal infusion, 270 min
  Conc. in bile: 20 µM
  Secretion (biliary): 0.001 µmol/kg/min
[2]; duodenal infusion, 300 min
  Conc. in bile: 20 µM
  Secretion (biliary): 0.001 µmol/kg/min
LXRα
  LXRα Activation EC50: No activity
VDR
  VDR Activation EC50: No activity
hTGR5 [3]
  EC50: 0.04 µM
[4]; [6]
  Hepatic metabolism, species in bile after iv administration: secreted in bile as such and mainly conjugated with taurine
[4]; [8]
  Conc. in bile: 40 µM
  Secretion (biliary): 0.002 µmol/kg/min
[4]; femoral infusion 1 μmol/kg/min, bile fistula rat
  Biliary secretion after iv infusion: not efficient
[4]; femoral infusion, 90 min
  Conc. in bile: 2300 µM
  Secretion (biliary): 0.127 µmol/kg/min
[4]; femoral infusion, 120 min
  Conc. in bile: 900 µM
  Secretion (biliary): 0.065 µmol/kg/min
[4]; femoral infusion, 150 min
  Conc. in bile: 60 µM
  Secretion (biliary): 0.004 µmol/kg/min
[4]; femoral infusion, 180 min
  Conc. in bile: 40 µM
  Secretion (biliary): 0.003 µmol/kg/min
[4]; femoral infusion, 210 min
  Conc. in bile: 20 µM
  Secretion (biliary): 0.001 µmol/kg/min
[5]; NaCl […]
  Detergency (CMC and surface tension lowering capacity): moderate detergent
[5]; […] NaCl water solution
  CMC […] Na+: 5.9 mM
  STCMC: Surface Tension at CMC: 52.4 Dyne/cm
